Data taken from patent publication US7736625B2, “Light stabilized in vivo stain composition and method of manufacture” (Zila, Inc., priority 2001, dated 2010).

Experiment: light stability of thiazine dye solution exposed to ambient incandescent light
Type: physicochemical
Details: total metal content less than 0.2 wt. %; initially deep-blue; overnight in the laboratory
Method: This example illustrates the light-instability of a TC product with negligible content of metal ions.
A sample of the TC product is prepared in accordance with Example 1 of my U.S. Pat. No. 6,086,852, incorporated herein by reference, and further purified by preparative high performance liquid chromatography. The total metal content of this sample is less than 0.2 wt. %.
An aliquout of this purified TC product sample is deep-blue in color.

## Cc1cc2nc3ccc(=[N+](C)C)cc-3sc2cc1N.[Cl-] [TC product, tolonium chloride]
  appearance of the solution after standing overnight exposed to ambient incandescent light: becomes colorless
